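Test compounds were applied to cells in 96-well plates for 48 hours at 5 doses. At the GI50, growth is halved. TGI marks complete inhibition of growth.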
Key:
Experiment in all cases: DTP human tumour cell line panel, 48 h
786-0 renal = system: 786-0 renal
A498 renal = system: A498 renal
A549 NSCLC = system: A549 NSCLC
ACHN renal = system: ACHN renal
BT-549 breast = system: BT-549 breast
CAKI-1 renal = system: CAKI-1 renal
CCRF-CEM leukemia = system: CCRF-CEM leukemia
COLO 205 colon = system: COLO 205 colon
DU-145 prostate = system: DU-145 prostate
EKVX NSCLC = system: EKVX NSCLC
HCC-2998 colon = system: HCC-2998 colon
HCT-116 colon = system: HCT-116 colon
HCT-15 colon = system: HCT-15 colon
HL-60(TB) leukemia = system: HL-60(TB) leukemia
HOP-62 NSCLC = system: HOP-62 NSCLC
HOP-92 NSCLC = system: HOP-92 NSCLC
HT29 colon = system: HT29 colon
IGROV1 ovarian = system: IGROV1 ovarian
K-562 leukemia = system: K-562 leukemia
KM12 colon = system: KM12 colon
LOX IMVI melanoma = system: LOX IMVI melanoma
M14 melanoma = system: M14 melanoma
MALME-3M melanoma = system: MALME-3M melanoma
MCF7 breast = system: MCF7 breast
MDA-MB-231 breast = system: MDA-MB-231 breast
MDA-MB-435 = system: MDA-MB-435
MOLT-4 leukemia = system: MOLT-4 leukemia
NCI-H226 lung = system: NCI-H226 lung
NCI-H23 lung = system: NCI-H23 lung
NCI-H460 lung = system: NCI-H460 lung
NCI-H522 lung = system: NCI-H522 lung
NCI/ADR-RES ovarian = system: NCI/ADR-RES ovarian
OVCAR-3 ovarian = system: OVCAR-3 ovarian
OVCAR-4 ovarian = system: OVCAR-4 ovarian
OVCAR-5 ovarian = system: OVCAR-5 ovarian
OVCAR-8 ovarian = system: OVCAR-8 ovarian
PC-3 prostate = system: PC-3 prostate
RPMI-8226 leukemia = system: RPMI-8226 leukemia
RXF 393 renal = system: RXF 393 renal
SF-268 CNS = system: SF-268 CNS
SF-295 CNS = system: SF-295 CNS
SF-539 CNS = system: SF-539 CNS
SK-MEL-2 melanoma = system: SK-MEL-2 melanoma
SK-MEL-28 melanoma = system: SK-MEL-28 melanoma
SK-OV-3 ovarian = system: SK-OV-3 ovarian
SN12C renal = system: SN12C renal
SNB-19 CNS = system: SNB-19 CNS
SNB-75 CNS = system: SNB-75 CNS
SR leukemia = system: SR leukemia
SW-620 colon = system: SW-620 colon
T-47D breast = system: T-47D breast
TK-10 renal = system: TK-10 renal
U251 CNS = system: U251 CNS
UACC-257 melanoma = system: UACC-257 melanoma
UACC-62 melanoma = system: UACC-62 melanoma
UO-31 renal = system: UO-31 renal
HS 578T breast = system: HS 578T breast
SK-MEL-5 melanoma = system: SK-MEL-5 melanoma

## CCN(CC)CCCC(Cc1ccccc1)Nc1c2ccc(Cl)cc2nc2ccc(OC)cc12 (stereo unspecified)
786-0 renal
  GI50: 1.4 µM
  TGI: 3.34 µM
A498 renal
  GI50: 1.88 µM
  TGI: 5.09 µM
A549 NSCLC
  GI50: 2.79 µM
  TGI: 7.29 µM
ACHN renal
  GI50: 2.01 µM
  TGI: 4.5 µM
BT-549 breast
  GI50: 2.2 µM
  TGI: 5.17 µM
CAKI-1 renal
  GI50: 2.1 µM
  TGI: 5.9 µM
CCRF-CEM leukemia
  GI50: 2 µM
  TGI: 6.51 µM
COLO 205 colon
  GI50: 1.61 µM
  TGI: 3.37 µM
DU-145 prostate
  GI50: 5 µM
  TGI: 18.3 µM
EKVX NSCLC
  GI50: 2.84 µM
  TGI: 10.5 µM
HCC-2998 colon
  GI50: 1.61 µM
  TGI: 3.3 µM
HCT-116 colon
  GI50: 1.95 µM
  TGI: 10.7 µM
HCT-15 colon
  GI50: 1.88 µM
  TGI: 4.72 µM
HL-60(TB) leukemia
  GI50: 2.11 µM
  TGI: 4.45 µM
HOP-62 NSCLC
  GI50: 3.39 µM
  TGI: 12.5 µM
HOP-92 NSCLC
  GI50: 2.1 µM
  TGI: 4.9 µM
HT29 colon
  GI50: 1.41 µM
  TGI: 3.57 µM
IGROV1 ovarian
  GI50: 3.21 µM
  TGI: 13.2 µM
K-562 leukemia
  GI50: 1.07 µM
  TGI: 2.89 µM
KM12 colon
  GI50: 2.79 µM
  TGI: 10.3 µM
LOX IMVI melanoma
  GI50: 1.6 µM
  TGI: 3.04 µM
M14 melanoma
  GI50: 1.82 µM
  TGI: 3.51 µM
MALME-3M melanoma
  GI50: 2.02 µM
  TGI: 3.6 µM
MCF7 breast
  GI50: 1.54 µM
  TGI: 3.35 µM
MDA-MB-231 breast
  GI50: 1.65 µM
  TGI: 3.7 µM
MDA-MB-435
  GI50: 1.5 µM
  TGI: 2.89 µM
MOLT-4 leukemia
  GI50: 1.91 µM
  TGI: 5.7 µM
NCI-H226 lung
  GI50: 3.63 µM
  TGI: 14.5 µM
NCI-H23 lung
  GI50: 2.9 µM
  TGI: 8.47 µM
NCI-H460 lung
  GI50: 2.44 µM
  TGI: 5.92 µM
NCI-H522 lung
  GI50: 1.81 µM
  TGI: 3.57 µM
NCI/ADR-RES ovarian
  GI50: 3.02 µM
  TGI: 10.4 µM
OVCAR-3 ovarian
  GI50: 2.88 µM
  TGI: 12.2 µM
OVCAR-4 ovarian
  GI50: 2.15 µM
  TGI: 6.2 µM
OVCAR-5 ovarian
  GI50: 2.67 µM
  TGI: 12.7 µM
OVCAR-8 ovarian
  GI50: 2.34 µM
  TGI: 5.26 µM
PC-3 prostate
  GI50: 5.22 µM
  TGI: 19.1 µM
RPMI-8226 leukemia
  GI50: 2.08 µM
  TGI: 5.26 µM
RXF 393 renal
  GI50: 1.63 µM
  TGI: 3.35 µM
SF-268 CNS
  GI50: 2.14 µM
  TGI: 5.84 µM
SF-295 CNS
  GI50: 1.86 µM
  TGI: 3.55 µM
SF-539 CNS
  GI50: 1.7 µM
  TGI: 3.33 µM
SK-MEL-2 melanoma
  GI50: 1.79 µM
  TGI: 3.46 µM
SK-MEL-28 melanoma
  GI50: 1.84 µM
  TGI: 3.59 µM
SK-OV-3 ovarian
  GI50: 4.09 µM
  TGI: 13.9 µM
SN12C renal
  GI50: 2.92 µM
  TGI: 10.2 µM
SNB-19 CNS
  GI50: 2.56 µM
  TGI: 7.17 µM
SNB-75 CNS
  GI50: 1.62 µM
  TGI: 3.65 µM
SR leukemia
  GI50: 1.43 µM
  TGI: 4.25 µM
SW-620 colon
  GI50: 1.77 µM
  TGI: 3.81 µM
T-47D breast
  GI50: 1.97 µM
  TGI: 4.16 µM
TK-10 renal
  GI50: 1.68 µM
  TGI: 3.31 µM
U251 CNS
  GI50: 1.56 µM
  TGI: 3.11 µM
UACC-257 melanoma
  GI50: 1.89 µM
  TGI: 3.44 µM
UACC-62 melanoma
  GI50: 1.95 µM
  TGI: 3.64 µM
UO-31 renal
  GI50: 1.35 µM
  TGI: 2.69 µM

## COc1cc(/C=C2\C(=O)N(c3ccccc3)c3ccccc32)cc(OC)c1OC
786-0 renal
  GI50: 6.67 µM
  TGI: 21.2 µM
A498 renal
  GI50: 18.1 µM
  TGI: 38.9 µM
A549 NSCLC
  GI50: 11.3 µM
  TGI: 40.9 µM
ACHN renal
  GI50: 6.32 µM
  TGI: 20.7 µM
BT-549 breast
  GI50: 15.5 µM
  TGI: 47.4 µM
CAKI-1 renal
  GI50: 12.5 µM
  TGI: 61.3 µM
CCRF-CEM leukemia
  GI50: 1.75 µM
  TGI: 7.78 µM
COLO 205 colon
  GI50: 14.4 µM
  TGI: 71.3 µM
EKVX NSCLC
  GI50: 23.5 µM
  TGI: 65.6 µM
HCC-2998 colon
  GI50: 10.6 µM
  TGI: 23.9 µM
HCT-116 colon
  GI50: 3.47 µM
  TGI: 12.4 µM
HCT-15 colon
  GI50: 4.37 µM
  TGI: 17.1 µM
HL-60(TB) leukemia
  GI50: 2.68 µM
  TGI: 15 µM
HOP-62 NSCLC
  GI50: 15 µM
  TGI: 31.5 µM
HOP-92 NSCLC
  GI50: 3.71 µM
  TGI: 20.7 µM
HS 578T breast
  GI50: 28.2 µM
  TGI: > 100 µM
HT29 colon
  GI50: 3.7 µM
  TGI: 13.9 µM
IGROV1 ovarian
  GI50: 6.61 µM
  TGI: 32 µM
K-562 leukemia
  GI50: 3.04 µM
  TGI: > 100 µM
KM12 colon
  GI50: 3.84 µM
  TGI: 20.1 µM
LOX IMVI melanoma
  GI50: 2.24 µM
  TGI: 4.61 µM
M14 melanoma
  GI50: 11.3 µM
  TGI: 26.9 µM
MALME-3M melanoma
  GI50: 18.5 µM
  TGI: 46.4 µM
MCF7 breast
  GI50: 8.05 µM
  TGI: > 100 µM
MDA-MB-231 breast
  GI50: 4.12 µM
  TGI: 26.1 µM
MDA-MB-435
  GI50: 5.85 µM
  TGI: 36.6 µM
MOLT-4 leukemia
  GI50: 2.33 µM
  TGI: 10.8 µM
NCI-H226 lung
  GI50: 9.69 µM
  TGI: 29.3 µM
NCI-H23 lung
  GI50: 9.79 µM
  TGI: 30.1 µM
NCI-H460 lung
  GI50: 3.82 µM
  TGI: > 100 µM
NCI-H522 lung
  GI50: 6.31 µM
  TGI: 23.3 µM
NCI/ADR-RES ovarian
  GI50: 6.37 µM
  TGI: 27.1 µM
OVCAR-3 ovarian
  GI50: 5.93 µM
  TGI: 26.1 µM
OVCAR-4 ovarian
  GI50: 10.4 µM
  TGI: 23.7 µM
OVCAR-5 ovarian
  GI50: 14.1 µM
  TGI: 29 µM
OVCAR-8 ovarian
  GI50: 8.83 µM
  TGI: 45.5 µM
PC-3 prostate
  GI50: 3.13 µM
  TGI: 16.1 µM
RPMI-8226 leukemia
  GI50: 2.17 µM
  TGI: 5.78 µM
RXF 393 renal
  GI50: 0.107 µM
  TGI: 2.87 µM
SF-268 CNS
  GI50: 4.32 µM
  TGI: 15.3 µM
SF-295 CNS
  GI50: 17.8 µM
  TGI: 81.3 µM
SF-539 CNS
  GI50: 5.38 µM
  TGI: 91.7 µM
SK-MEL-2 melanoma
  GI50: 11.7 µM
  TGI: 30.7 µM
SK-MEL-28 melanoma
  GI50: 4.91 µM
  TGI: 18.4 µM
SK-MEL-5 melanoma
  GI50: 7.29 µM
  TGI: 26.7 µM
SK-OV-3 ovarian
  GI50: 18.4 µM
  TGI: 43.8 µM
SN12C renal
  GI50: 5.4 µM
  TGI: 24.7 µM
SNB-19 CNS
  GI50: 6.1 µM
  TGI: 25.5 µM
SNB-75 CNS
  GI50: 4.82 µM
  TGI: 18.8 µM
SR leukemia
  GI50: 2.1 µM
  TGI: 10.4 µM
SW-620 colon
  GI50: 5.96 µM
  TGI: > 100 µM
T-47D breast
  GI50: 5.02 µM
  TGI: > 100 µM
TK-10 renal
  GI50: 16.3 µM
  TGI: 37.3 µM
U251 CNS
  GI50: 3.87 µM
  TGI: 15.3 µM
UACC-257 melanoma
  GI50: 6.66 µM
  TGI: 19.9 µM
UACC-62 melanoma
  GI50: 7.12 µM
  TGI: 21.6 µM
UO-31 renal
  GI50: 13.7 µM
  TGI: 31.3 µM

From PubChem BioAssay (NCI)
